Assay results from US8952024B2, “Herbicidal pyrimidone derivatives” (E I du Pont de Nemours and Company, priority 2009, dated 2015).

Assays:
Assay type in all cases: in vivo
corn (Zea mays) = assay: Test A pre-/postemergence plant response; conditions: for Corn plant response rating: visual injury, 0 to 100 scale (0 no effect, 100 complete control), approx. ten days
Method in brief: (§1)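 Plants grown from seed in a loam soil and sand mix received test compounds both as a preemergence soil spray and, at the same time, as a postemergence spray at the one- to two-leaf stage. Injury was judged visually against untreated controls roughly ten days later, 0 meaning no effect and 100 complete control.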

[1] = test system: morningglory (Ipomoea spp.); assay: Test A pre-/postemergence plant response; conditions: for Morningglory plant response rating: visual injury, 0 to 100 scale (0 no effect, 100 complete control), approx. ten days
Method in brief: as §1

[2] = test system: barnyardgrass (Echinochloa crus-galli); assay: Test A pre-/postemergence plant response; conditions: for Barnyardgrass plant response rating: visual injury, 0 to 100 scale (0 no effect, 100 complete control), approx. ten days
Method in brief: as §1

[3] = test system: large crabgrass (Digitaria sanguinalis); assay: Test A pre-/postemergence plant response; conditions: for Crabgrass, Large plant response rating: visual injury, 0 to 100 scale (0 no effect, 100 complete control), approx. ten days
Method in brief: as §1

[4] = test system: giant foxtail (Setaria faberii); assay: Test A pre-/postemergence plant response; conditions: for Foxtail, Giant plant response rating: visual injury, 0 to 100 scale (0 no effect, 100 complete control), approx. ten days
Method in brief: as §1

[5] = test system: velvetleaf (Abutilon theophrasti); assay: Test A pre-/postemergence plant response; conditions: for Velvetleaf plant response rating: visual injury, 0 to 100 scale (0 no effect, 100 complete control), approx. ten days
Method in brief: as §1

[6] = test system: pigweed (Amaranthus retroflexus); assay: Test A pre-/postemergence plant response; conditions: for Pigweed plant response rating: visual injury, 0 to 100 scale (0 no effect, 100 complete control), approx. ten days
Method in brief: as §1

[7] = test system: wheat (Triticum aestivum); assay: Test A pre-/postemergence plant response; conditions: for Wheat plant response rating: visual injury, 0 to 100 scale (0 no effect, 100 complete control), approx. ten days
Method in brief: as §1

rice (Oryza sativa) = assay: Test B flooded paddy test; conditions: for Plant response rating, Flood, Rice: 250 g ai/ha, flooded paddy test, visual rating on 0 to 100 scale (0 no effect, 100 complete control) after 13 to 15 days; for Plant response rating, Rice: Flood (flooded paddy test), 13 to 15 days; for Rice plant response rating: Flood, 31 g ai/ha, scale 0 to 100 (0 no effect, 100 complete control)
Method in brief: (§2)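 Visual scores run from 0 (no effect) to 100 (complete control), assigned by comparison with controls 13 to 15 days after treatment. Test compounds went straight into water standing 3 cm above the soil, around plants at the 2-leaf stage kept in a greenhouse.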

[8] = test system: umbrella sedge (Cyperus difformis); assay: Test B flooded paddy test; conditions: for Plant response rating, Flood, Sedge, Umbrella: 250 g ai/ha, flooded paddy test, visual rating on 0 to 100 scale (0 no effect, 100 complete control) after 13 to 15 days; for Plant response rating, Sedge, Umbrella: Flood (flooded paddy test), 13 to 15 days; for Sedge, Umbrella plant response rating: Flood, 31 g ai/ha, scale 0 to 100 (0 no effect, 100 complete control)
Method in brief: as §2

[9] = test system: barnyardgrass (Echinochloa crus-galli); assay: Test B flooded paddy test; conditions: for Plant response rating, Flood, Barnyardgrass: 250 g ai/ha, flooded paddy test, visual rating on 0 to 100 scale (0 no effect, 100 complete control) after 13 to 15 days; for Plant response rating, Barnyardgrass: Flood (flooded paddy test), 13 to 15 days; for Barnyardgrass plant response rating: Flood, 31 g ai/ha, scale 0 to 100 (0 no effect, 100 complete control)
Method in brief: as §2

[10] = test system: ducksalad (Heteranthera limosa); assay: Test B flooded paddy test; conditions: for Plant response rating, Flood, Ducksalad: 250 g ai/ha, flooded paddy test, visual rating on 0 to 100 scale (0 no effect, 100 complete control) after 13 to 15 days; for Plant response rating, Ducksalad: Flood (flooded paddy test), 13 to 15 days; for Ducksalad plant response rating: Flood, 31 g ai/ha, scale 0 to 100 (0 no effect, 100 complete control)
Method in brief: as §2

[11] = Postemergence, 125 g ai/ha, 0 to 100 scale where 0 is no effect and 100 is complete control
[12] = Preemergence, 125 g ai/ha, 0 to 100 scale, 0 = no effect, 100 = complete control
[13] = Preemergence, 500 g ai/ha, 0 to 100 scale, 0 = no effect, 100 = complete control
[14] = 62 g ai/ha, scale of 0 to 100 where 0 is no effect and 100 is complete control
[15] = 125 g ai/ha, scale 0 to 100, 0 is no effect, 100 is complete control

Cc1ccc(Cl)cc1-n1c(-c2cc(F)cc(F)c2)ncc(C(=O)C2=C(O)CCCC2=O)c1=O [Compound 179]
30: Plant response rating, Flood, Barnyardgrass [9]
100: Morningglory plant response rating ([1]; Postemergence, 500 g ai/ha) | Crabgrass, Large plant response rating ([3]; Postemergence, 500 g ai/ha) | Plant response rating, Crabgrass, Large [3, 13] | Plant response rating, Velvetleaf [5, 11] | Velvetleaf plant response rating ([5]; Postemergence, 500 g ai/ha) | Plant response rating, Velvetleaf [5, 13] | Pigweed plant response rating ([6]; Postemergence, 500 g ai/ha) | Plant response rating, Flood, Ducksalad [10]
40: Plant response rating, Morningglory [1, 13] | Plant response rating, Foxtail, Giant [4, 11] | Plant response rating, Wheat [7, 11] | Sedge, Umbrella plant response rating [8]
50: Plant response rating, Velvetleaf [5, 12] | Plant response rating, Pigweed [6, 12]
85: Plant response rating, Sedge, Umbrella [8, 15]
10: Plant response rating, Corn (corn (Zea mays); [11]) | Plant response rating, Foxtail, Giant [4, 12] | Plant response rating, Barnyardgrass [9, 14]
20: Plant response rating, Crabgrass, Large [3, 12] | Plant response rating, Barnyardgrass [9, 15]
60: Plant response rating, Morningglory [1, 11] | Plant response rating, Barnyardgrass [2, 11] | Plant response rating, Crabgrass, Large [3, 11] | Plant response rating, Wheat [7, 13]
65: Plant response rating, Flood, Rice (rice (Oryza sativa))
90: Barnyardgrass plant response rating ([2]; Postemergence, 500 g ai/ha) | Foxtail, Giant plant response rating ([4]; Postemergence, 500 g ai/ha) | Plant response rating, Foxtail, Giant [4, 13] | Plant response rating, Pigweed [6, 11] | Plant response rating, Pigweed [6, 13] | Plant response rating, Ducksalad [10, 14] | Ducksalad plant response rating [10]
25: Plant response rating, Rice (rice (Oryza sativa); [15])
0: Plant response rating, Corn (corn (Zea mays); [12]) | Plant response rating, Corn (corn (Zea mays); [13]) | Plant response rating, Morningglory [1, 12] | Plant response rating, Barnyardgrass [2, 12] | Plant response rating, Wheat [7, 12] | Plant response rating, Rice (rice (Oryza sativa); [14]) | Rice plant response rating (rice (Oryza sativa)) | Barnyardgrass plant response rating [9]
80: Corn plant response rating (corn (Zea mays); Postemergence, 500 g ai/ha) | Wheat plant response rating ([7]; Postemergence, 500 g ai/ha) | Plant response rating, Sedge, Umbrella [8, 14]
95: Plant response rating, Flood, Sedge, Umbrella [8] | Plant response rating, Ducksalad [10, 15]
70: Plant response rating, Barnyardgrass [2, 13]

Cc1cccc(-c2ncc(C(=O)C3=C(O)CCCC3=O)c(=O)n2C2CCCCC2)c1 [Compound 185]
0: Plant response rating, Corn (corn (Zea mays); [11]) | Plant response rating, Corn (corn (Zea mays); [12]) | Plant response rating, Corn (corn (Zea mays); [13]) | Plant response rating, Barnyardgrass [2, 12] | Plant response rating, Crabgrass, Large [3, 12] | Plant response rating, Foxtail, Giant [4, 12] | Plant response rating, Velvetleaf [5, 12] | Plant response rating, Pigweed [6, 12] | Plant response rating, Wheat [7, 11] | Wheat plant response rating ([7]; Postemergence, 500 g ai/ha) | Plant response rating, Wheat [7, 12] | Plant response rating, Wheat [7, 13] | Plant response rating, Flood, Rice (rice (Oryza sativa)) | Plant response rating, Rice (rice (Oryza sativa); [14]) | Plant response rating, Rice (rice (Oryza sativa); [15]) | Rice plant response rating (rice (Oryza sativa)) | Plant response rating, Flood, Barnyardgrass [9] | Plant response rating, Barnyardgrass [9, 14] | Plant response rating, Barnyardgrass [9, 15] | Barnyardgrass plant response rating [9]
65: Plant response rating, Sedge, Umbrella [8, 15] | Sedge, Umbrella plant response rating [8]
70: Plant response rating, Barnyardgrass [2, 11] | Crabgrass, Large plant response rating ([3]; Postemergence, 500 g ai/ha) | Plant response rating, Pigweed [6, 13] | Plant response rating, Ducksalad [10, 14]
75: Plant response rating, Sedge, Umbrella [8, 14] | Plant response rating, Flood, Ducksalad [10] | Plant response rating, Ducksalad [10, 15] | Ducksalad plant response rating [10]
80: Foxtail, Giant plant response rating ([4]; Postemergence, 500 g ai/ha)
90: Barnyardgrass plant response rating ([2]; Postemergence, 500 g ai/ha) | Plant response rating, Velvetleaf [5, 11] | Plant response rating, Pigweed [6, 11]
60: Plant response rating, Flood, Sedge, Umbrella [8]
50: Corn plant response rating (corn (Zea mays); Postemergence, 500 g ai/ha) | Plant response rating, Barnyardgrass [2, 13] | Plant response rating, Crabgrass, Large [3, 11] | Plant response rating, Foxtail, Giant [4, 11] | Plant response rating, Foxtail, Giant [4, 13] | Plant response rating, Velvetleaf [5, 13]
30: Plant response rating, Morningglory [1, 13] | Plant response rating, Crabgrass, Large [3, 13]
100: Plant response rating, Morningglory [1, 11] | Morningglory plant response rating ([1]; Postemergence, 500 g ai/ha) | Velvetleaf plant response rating ([5]; Postemergence, 500 g ai/ha) | Pigweed plant response rating ([6]; Postemergence, 500 g ai/ha)

CCc1cccc(-c2ncc(C(=O)C3=C(O)CCCC3=O)c(=O)n2C2CCCCC2)c1 [Compound 194]
0: Plant response rating, Corn (corn (Zea mays); [11]) | Plant response rating, Corn (corn (Zea mays); [12]) | Plant response rating, Corn (corn (Zea mays); [13]) | Plant response rating, Barnyardgrass [2, 12] | Plant response rating, Wheat [7, 11] | Wheat plant response rating ([7]; Postemergence, 500 g ai/ha) | Plant response rating, Wheat [7, 12] | Plant response rating, Wheat [7, 13] | Plant response rating, Flood, Rice (rice (Oryza sativa)) | Plant response rating, Rice (rice (Oryza sativa); [14]) | Plant response rating, Rice (rice (Oryza sativa); [15]) | Rice plant response rating (rice (Oryza sativa)) | Plant response rating, Sedge, Umbrella [8, 14] | Plant response rating, Sedge, Umbrella [8, 15] | Sedge, Umbrella plant response rating [8] | Plant response rating, Barnyardgrass [9, 14] | Barnyardgrass plant response rating [9]
30: Plant response rating, Foxtail, Giant [4, 11] | Plant response rating, Velvetleaf [5, 12]
60: Plant response rating, Crabgrass, Large [3, 11]
50: Foxtail, Giant plant response rating ([4]; Postemergence, 500 g ai/ha) | Plant response rating, Pigweed [6, 12] | Plant response rating, Ducksalad [10, 14] | Plant response rating, Ducksalad [10, 15]
100: Morningglory plant response rating ([1]; Postemergence, 500 g ai/ha) | Barnyardgrass plant response rating ([2]; Postemergence, 500 g ai/ha) | Plant response rating, Velvetleaf [5, 11] | Velvetleaf plant response rating ([5]; Postemergence, 500 g ai/ha) | Plant response rating, Pigweed [6, 11] | Pigweed plant response rating ([6]; Postemergence, 500 g ai/ha) | Plant response rating, Pigweed [6, 13]
10: Corn plant response rating (corn (Zea mays); Postemergence, 500 g ai/ha) | Plant response rating, Barnyardgrass [9, 15]
70: Plant response rating, Velvetleaf [5, 13]
40: Plant response rating, Barnyardgrass [2, 13] | Plant response rating, Crabgrass, Large [3, 13] | Ducksalad plant response rating [10]
15: Plant response rating, Flood, Barnyardgrass [9]
65: Plant response rating, Flood, Sedge, Umbrella [8]
90: Plant response rating, Morningglory [1, 11] | Plant response rating, Barnyardgrass [2, 11] | Crabgrass, Large plant response rating ([3]; Postemergence, 500 g ai/ha)
20: Plant response rating, Morningglory [1, 13] | Plant response rating, Crabgrass, Large [3, 12]
80: Plant response rating, Flood, Ducksalad [10]
